# Experimental data: US12343676B2, “Process and system for capture of carbon dioxide” (COMMONWEALTH SCIENTIFIC AND INDUSTRIAL RESEARCH ORGANISATION, priority 2017, dated 2025)
# Like-named read-outs stand apart in the source and are kept apart here.
# Columns and labels:
# [1] = Protonation constants with enthalpies and entropies, 15.0-45.0 °C; format: physicochemical; conditions: for ΔH° of log K carb Prot 2 / ΔH° of log K prot / ΔS° of log K carb Prot 2 / ΔS° of log K prot: 15.0-45.0 °C
# Source text: From the data in Table 2 the first protonation constants of AMPy, log K prot, are similar to MEA and BZA and fall within a suitable range for CO2 capture processes. Importantly, the large and desired protonation enthalpy (ΔH°) observed for BZA is largely maintained in the AMPy derivatives (−53.9 to −46.6).
# pKa at 25 °C = format: physicochemical
# [2] = cited from earlier work
# [3] = Carbamate stability constants with enthalpies and entropies, 15.0-45.0 °C; format: physicochemical
# [4] = Bubble reactor precipitation propensity with pure CO2; format: physicochemical; conditions: pure CO2 at atmospheric pressure, ambient temperature, aqueous
# Description: As part of the absorbent screening process concentrated aqueous 3-AMPy was evaluated for its potential to form solid precipitates in the presence of CO2 at high concentrations. […] A simple bubble reactor was utilised to determine the precipitation propensity while passing a pure CO2 gas stream at atmospheric pressure into a concentrated 3-AMPy solution held at ambient temperature. A concentration of 80 wt % 3-AMPy was achieved before precipitation of the carbamate salt was observed. While a precipitate was observed, it is unlikely this will occur in the pilot plant given the aggressive conditions employed in the simple lab based study. Furthermore, similar precipitation behaviour has been observed for other common aqueous amines in highly concentrated solutions but which are operated successfully in pilot plants.
# [5] = water, Table 7, (aminomethyl)pyridines, read-out: pKa of conjugate acid at 25° C. in water
ΔH° of log K carb Prot 2 [1] [kJ · mol^−1],ΔH° of log K prot [1] [kJ · mol^−1],ΔS° of log K carb Prot 2 [1] [J · mol^−1 · K^−1],ΔS° of log K prot [1] [J · mol^−1 · K^−1],log K carb Prot 2 ([1]; 15 °C),log K prot ([1]; 15 °C),log K carb Prot 2 ([1]; 25 °C),log K prot ([1]; 25 °C),log K prot ([1]; 35 °C),log K carb Prot 2 ([1]; 45 °C),log K prot ([1]; 45 °C),"pKa (pKa at 25 °C; 25 °C, read-out: pKa)",pKa (pKa at 25 °C; [5]),ΔH° of log K carb ([3]; 15.0-45.0 °C) [kJ · mol^−1],ΔS° of log K carb ([3]; 15.0-45.0 °C) [J · mol^−1 · K^−1],log K carb (carbamate stability constant) ([3]; 15 °C),log K carb (carbamate stability constant) ([3]; 25 °C),log K carb (carbamate stability constant) ([3]; 35 °C),log K carb (carbamate stability constant) ([3]; 45 °C),SMILES,pKa at 25° C. ([2]; Table 8),other results
−17.9,−46.6,24.5,−10.1,1.96,8.98,1.86,8.68,8.41,1.75,8.19,8.6,8.7,–,–,–,–,–,–,"NCc1ccccn1 [2-AMPy, 2-(aminomethyl)pyridine]",–,–
−14.5,−50.6,−15.2,0.8,3.42,9.11,3.34,8.83,8.51,3.17,8.26,8.6,8.8,−36.83,82.97,2.34,2.11,1.93,1.70,"NCc1cccnc1 [3-AMPy, 3-(aminomethyl)pyridine]",–,log K carb Prot 2 ([1]; 35 °C): 3.25; concentration achieved before precipitation of the carbamate salt [4]: 80 wt %
−25.5,−53.9,15.3,19.6,3.84,8.77,3.65,8.43,8.08,3.41,7.86,8.6,8.4,−30.05,−58.97,2.35,2.22,2.02,1.84,"NCc1ccncc1 [4-AMPy, 4-(aminomethyl)pyridine]",–,log K carb Prot 2 ([1]; 35 °C): 3.48; ΔH° of log K carb Prot ([3]; 15.0-45.0 °C): −38.08 kJ · mol^−1; ΔS° of log K carb Prot ([3]; 15.0-45.0 °C): 4.91 J · mol^−1 · K^−1; log K carb Prot ([3]; 15 °C): 7.15; log K carb Prot ([3]; 25 °C): 6.95; log K carb Prot ([3]; 35 °C): 6.69; log K carb Prot ([3]; 45 °C): 6.52
–,−59.5,–,20,–,9.77,–,9.43,8.95,–,8.61,–,–,−36,−82,2.20,2.01,1.81,1.58,"NCc1ccccc1 [BZA, benzylamine, reference compound]",–,–
–,–,–,–,–,–,–,–,–,–,–,–,–,−18,−35,1.85,1.76,1.66,1.55,"NCCO [MEA, monoethanolamine, reference compound]",–,–

# Continued, compound first:
SMILES,ΔH° of log K carb Prot 2 [1] [kJ · mol^−1],ΔH° of log K prot [1] [kJ · mol^−1],ΔS° of log K carb Prot 2 [1] [J · mol^−1 · K^−1],ΔS° of log K prot [1] [J · mol^−1 · K^−1],log K carb Prot 2 ([1]; 15 °C),log K prot ([1]; 15 °C),log K carb Prot 2 ([1]; 25 °C),log K prot ([1]; 25 °C),log K prot ([1]; 35 °C),log K carb Prot 2 ([1]; 45 °C),log K prot ([1]; 45 °C),"pKa (pKa at 25 °C; 25 °C, read-out: pKa)",pKa (pKa at 25 °C; [5]),ΔH° of log K carb ([3]; 15.0-45.0 °C) [kJ · mol^−1],ΔS° of log K carb ([3]; 15.0-45.0 °C) [J · mol^−1 · K^−1],log K carb (carbamate stability constant) ([3]; 15 °C),log K carb (carbamate stability constant) ([3]; 25 °C),log K carb (carbamate stability constant) ([3]; 35 °C),log K carb (carbamate stability constant) ([3]; 45 °C),pKa at 25° C. ([2]; Table 8),other results
OCCC1CCCCN1 (stereo not shown) [2-piperidinylethanol],–,–,–,–,–,–,–,–,–,–,–,–,–,–,–,–,–,–,–,10.5,pKa at 25° C. [2]: 10.5
OCC1CCCCN1 (stereo not shown) [2-piperidinylmethanol],–,–,–,–,–,–,–,–,–,–,–,–,–,–,–,–,–,–,–,10.1,pKa at 25° C. [2]: 10.1
"Nc1cccnc1 [3-Aminopyridine, reference compound]",–,–,–,–,–,–,–,–,–,–,–,–,–,–,–,–,–,–,–,–,"pKa of conjugate acid at 25° C. in water ([2]; Table 7, aniline and aminopyridines): 6.3"
OCC1CCNCC1 [4-piperidinylmethanol],–,–,–,–,–,–,–,–,–,–,–,–,–,–,–,–,–,–,–,10.6,pKa at 25° C. [2]: 10.6
